Data published in patent US12342842B2, “Preparation for use in enhancing formation of short-chain fatty acids (SCFAs)” (Evonik Operations GmbH, priority 2019, dated 2025).

Tests used:
[1] = tested on: human colonic microbiota; test: I-screen fermentation, SCFA analysis with omega-3 amino acid salts, FFA and amino acids (Examples 5 and 6); type: cell-based; conditions: salts 1.4 mg/ml; for Iso-butyrate / Iso-valerate: 24 h in SIEM, FFA 0.95 mg/ml, amino acids 0.5 mg/ml, means of triplicates; for Iso-butyrate: control 1.21; for Iso-valerate: control 2.74; for Propionate/acetate ratio / Propionate / Acetate: FFA 0.96 mg/ml, L-lysine 0.49, L-arginine 0.52, L-ornithine 0.5 mg/ml; for Propionate/acetate ratio: control 0.48; for Propionate: control 7.37; for Acetate: control 15.21
[2] = tested on: human colonic microbiota; test: I-screen intestinal screening model, microbiota composition by V4 16S rRNA gene sequencing (Example 1); type: cell-based; conditions: omega-3-lys, EE, fish oil 1.4 mg/ml, inulin 4 mg/ml, means of triplicates
From the text: To determine the effect of omega-3 compounds on adult colonic microbiota, an intestinal screening model was used (I-screen, TNO, the Netherlands), which corresponds to colonic environment. A translation of such in vitro experiment towards an application in a living organism (animal or human) requires the use of a colon-specific delivery form to circumvent absorption of fatty acids in upper parts of the gastrointestinal tract. The use of compositions comprising omega-3 compounds in formulations enabling a colon-specific delivery is part of the present invention. […]
The microbiota composition was analyzed by 16S rRNA gene amplicon sequencing of the V4 hypervariable region. […]
The amount of bacterial DNA in the i-screen DNA samples was determined by quantitative polymerase chain reaction (qPCR) using primers specific for the bacterial 16S rRNA gene: Forward primer: CGAAAGCGTGGGGAGCAAA; Reverse primer: GTTCGTACTCCCCAGGCGG; Probe: 6FAM-[…]-MGB.
Subsequently, PCR amplicons of the V4 hypervariable region of the 16S rRNA gene were generated for the individual samples by amplification of 500 pg of DNA as described by Kozich et al. (2013), using F515/R806 primers (Caporaso et al. 2011). […] The amount of amplified DNA per sample was quantified using the dsDNA 910 Reagent Kit on the Fragment Analyzer (Advanced Analytical). […]

Molecule: N=C(N)NCCC[C@H](N)C(=O)O [Arg, L-arginine]
- Iso-butyrate [1]: 1.21 mM
- Iso-valerate [1]: 3.71 mM
- Propionate/acetate ratio [1]: 0.40
- Propionate [1]: 9.39 mM
- Acetate [1]: 23.50 mM

Molecule: NCCCC[C@H](N)C(=O)O [Lys, L-lysine]
- Iso-butyrate [1]: 1.47 mM
- Iso-valerate [1]: 3.57 mM
- Propionate/acetate ratio [1]: 0.40
- Propionate [1]: 9.49 mM
- Acetate [1]: 24.03 mM

Molecule: NCCC[C@H](N)C(=O)O [Orn, L-ornithine]
- Iso-butyrate [1]: 1.37 mM
- Iso-valerate [1]: 3.31 mM
- Propionate/acetate ratio [1]: 0.36
- Propionate [1]: 9.11 mM
- Acetate [1]: 25.36 mM

Molecule: inulin
- Effect on colonic microbiota after 24 h incubation (variance explained versus control) [2]: 40.2%
